Data as given in patent US10945932B2, “Prebiotic oral care compositions containing carboxylic acids” (COLGATE-PALMOLIVE COMPANY, priority 2013, dated 2021).
Like-named read-outs stand apart in the source and are kept apart here.

Key:
[1] = system: beneficial oral bacteria and pathogenic oral bacteria; test: Biofilm growth, prebiotic effect over the whole panel; format: cell-based; details: 25 μmol/ml; 48 hours; threshold value of 1.6
Experimental: Late exponential growth phase liquid cultures were prepared by transferring the respective bacterium from blood agar plates to BHI and overnight incubation at 37° C. in an anaerobic atmosphere for A. viscosus, V. parvula, F. nucleatum, P. gingivalis, P. intermedia, T. forsythia, A. naeslundii, and C. sputigena, and in a 5% CO2 environment for S. salivarius, S. sanguinis, S. mitis, A. actinomycetemcomitans, S. mutans, and S. gordonii. […] Additionally, for each bacterium tested, a background control, to correct for background staining, was added. This background control contained the bacterium tested and 0.03 weight % chlorhexidine, as an antiseptic. Plates were incubated as previously described. After 48 hrs the supernatant was removed from the wells of the plates. The wells were washed twice with 1×100 μL/PBS (phosphate buffered saline), fixed for 20 minutes with 96% vol. ethanol (96% vol. solution in water) and the biofilm retained at the bottom of the wells was stained with 1 weight % crystal violet (1 weight % solution in water). […] Quantification of the stained biofilm was performed by measuring the absorbance at 630 nm using a Multiskan Ascent microplate reader (Thermo Scientific).

Veillonella parvula = details: V parvula, BHI
Experimental: (§1) Late exponential growth phase liquid cultures were prepared by transferring the respective bacterium from blood agar plates to BHI and overnight incubation at 37° C. in an anaerobic atmosphere for A. viscosus, V. parvula, F. nucleatum, P. gingivalis, P. intermedia, T forsythia, A. naeslundii, and C. sputigena, and in a 5% CO2 environment for S. salivarius, S. sanguinis, S. mitis, A. actinomycetemcomitans, S. mutans, S. sobrinus and S. gordonii. Overnight cultures were transferred to BHI and adjusted to a concentration of 1×10^7 CFU/ml (colony forming units per ml) by measuring the optical density at 600 nm (OD600) (BioRad SmartSpec 3000). For each strain, 200 μl of the bacterial suspension was added to a 96-well plate containing 20 μl of the respective carboxylic acids. Final concentrations of the carboxylic acids were set to 5, 10, 20 and 25 μmol/ml. […] Plates were incubated as previously described.
(§2) For each combination of bacterium/carboxylic acid, and for each of their respective controls (i.e. the particular bacterium in the nutritionally rich medium with no carboxylic acid), the optical density was measured at 630 nm (OD630) at 0 h, 24 h and 48 h (Thermo Scientific Multiskan Ascent). Additionally, the OD630 for combinations of bacterium/carboxylic acid grown in a 5% CO2 environment were also measured every hour between 0 h and 9 h.
(§3) The experiment was carried out on three different days (thus providing 3 biological replicas) and on each day the experiment was carried out in quadruple (thus providing 4 technical replicas) for each combination of bacterium with carboxylic acid and for each control. For each day and for each combination, the average (mean) of the values obtained (as detailed above) for the four technical replicas was calculated to provide a single value for each combination on each day.

Streptococcus sanguinis = details: S sanguinis, BHI
Experimental: as §1, §2, §3

Streptococcus mutans = details: S mutans, BHI
Experimental: as §1, §2, §3

Tannerella forsythia = details: T forsythia, BHI
Experimental: as §1, §2, §3

Fusobacterium nucleatum = details: F nucleatum, BHI
Experimental: as §1, §2, §3

Streptococcus salivarius = details: S salivarius, BHI
Experimental: as §1, §2, §3

Actinomyces viscosus = details: A viscosus, BHI
Experimental: as §1, §2, §3

Streptococcus sobrinus = details: S sobrinus, BHI
Experimental: as §1, §2, §3

[2] = system: beneficial oral bacteria and pathogenic oral bacteria; details: over 48 hours, threshold value of 1.25
Excerpt: The beneficial oral bacteria tested were Streptococcus mitis, Streptococcus salivarius, Streptococcus sanguinis, Actinomyces viscosus, Streptococcus gordonii, Capnocytophaga sputigena, Actinomyces naeslundii and Veillonella parvula. The pathogenic oral bacteria tested were Streptococcus mutans, Prevotella intermedia, Porphyromonas gingivalis, Fusobacterium nucleatum, Tannerella forsythia, Aggregatibacter actinomycetemcomitans and Streptococcus sobrinus.
as §1, §2, §3
This value was selected in order to exclude low-stimulating metabolites and avoid false positive results.

| SMILES | prebiotic effect (biofilm growth) [1] | extent of growth, maximal OD630 over 48 hr divided by maximal OD of control (control = 1) (Veillonella parvula; 5 μmol/ml) | extent of growth, maximal OD630 over 48 hr divided by maximal OD of control (control = 1) (Veillonella parvula; 10 μmol/ml) | extent of growth, maximal OD630 over 48 hr divided by maximal OD of control (control = 1) (Veillonella parvula; 20 μmol/ml) | extent of growth, maximal OD630 over 48 hr divided by maximal OD of control (control = 1) (Veillonella parvula; 25 μmol/ml) | extent of growth, maximal OD630 over 48 hr divided by maximal OD of control (control = 1) (Streptococcus sanguinis; 5 μmol/ml) | extent of growth, maximal OD630 over 48 hr divided by maximal OD of control (control = 1) (Streptococcus sanguinis; 10 μmol/ml) | extent of growth, maximal OD630 over 48 hr divided by maximal OD of control (control = 1) (Streptococcus sanguinis; 20 μmol/ml) | extent of growth, maximal OD630 over 48 hr divided by maximal OD of control (control = 1) (Streptococcus sanguinis; 25 μmol/ml) | extent of growth, maximal OD630 over 48 hr divided by maximal OD of control (control = 1) (Streptococcus mutans; 5 μmol/ml) | extent of growth, maximal OD630 over 48 hr divided by maximal OD of control (control = 1) (Streptococcus mutans; 10 μmol/ml) | extent of growth, maximal OD630 over 48 hr divided by maximal OD of control (control = 1) (Streptococcus mutans; 20 μmol/ml) | extent of growth, maximal OD630 over 48 hr divided by maximal OD of control (control = 1) (Streptococcus mutans; 25 μmol/ml) | extent of growth, maximal OD630 over 48 hr divided by maximal OD of control (control = 1) (Tannerella forsythia; 5 μmol/ml) | extent of growth, maximal OD630 over 48 hr divided by maximal OD of control (control = 1) (Tannerella forsythia; 10 μmol/ml) | extent of growth, maximal OD630 over 48 hr divided by maximal OD of control (control = 1) (Tannerella forsythia; 20 μmol/ml) | extent of growth, maximal OD630 over 48 hr divided by maximal OD of control (control = 1) (Tannerella forsythia; 25 μmol/ml) | extent of growth, maximal OD630 over 48 hr divided by maximal OD of control (control = 1) (Fusobacterium nucleatum; 5 μmol/ml) | extent of growth, maximal OD630 over 48 hr divided by maximal OD of control (control = 1) (Fusobacterium nucleatum; 10 μmol/ml) | extent of growth, maximal OD630 over 48 hr divided by maximal OD of control (control = 1) (Fusobacterium nucleatum; 20 μmol/ml) | other results |
| --- | --- | --- | --- | --- | --- | --- | --- | --- | --- | --- | --- | --- | --- | --- | --- | --- | --- | --- | --- | --- | --- |
| N[C@@H](CC(=O)O)C(=O)O [L-aspartic acid] | exhibited prebiotic effects | 1.0851 | 1.1168 | 1.1378 | 1.1498 | 0.8662 | 0.8606 | 0.8622 | 0.8613 | 0.9466 | 0.9230 | 0.9036 | 0.9149 | 0.9947 | 0.9717 | 1.0111 | 0.9935 | 0.7922 | 0.7973 | 0.8395 | extent of growth, maximal OD630 over 48 hr divided by maximal OD of control (control = 1) (Fusobacterium nucleatum; 25 μmol/ml): 0.8720; extent of growth, maximal OD630 over 48 hr divided by maximal OD of control (control = 1) (Streptococcus salivarius; 5 μmol/ml): 0.9808; extent of growth, maximal OD630 over 48 hr divided by maximal OD of control (control = 1) (Streptococcus salivarius; 10 μmol/ml): 0.9975; extent of growth, maximal OD630 over 48 hr divided by maximal OD of control (control = 1) (Streptococcus salivarius; 20 μmol/ml): 1.0719; extent of growth, maximal OD630 over 48 hr divided by maximal OD of control (control = 1) (Streptococcus salivarius; 25 μmol/ml): 0.9943; extent of growth, maximal OD630 over 48 hr divided by maximal OD of control (control = 1) (Actinomyces viscosus; 5 μmol/ml): 0.6862; extent of growth, maximal OD630 over 48 hr divided by maximal OD of control (control = 1) (Actinomyces viscosus; 10 μmol/ml): 0.6163; extent of growth, maximal OD630 over 48 hr divided by maximal OD of control (control = 1) (Actinomyces viscosus; 20 μmol/ml): 0.5787; extent of growth, maximal OD630 over 48 hr divided by maximal OD of control (control = 1) (Actinomyces viscosus; 25 μmol/ml): 0.5023; extent of growth, maximal OD630 over 48 hr divided by maximal OD of control (control = 1) (Streptococcus sobrinus; 5 μmol/ml): 0.9714; extent of growth, maximal OD630 over 48 hr divided by maximal OD of control (control = 1) (Streptococcus sobrinus; 10 μmol/ml): 0.9741; extent of growth, maximal OD630 over 48 hr divided by maximal OD of control (control = 1) (Streptococcus sobrinus; 20 μmol/ml): 0.9458; extent of growth, maximal OD630 over 48 hr divided by maximal OD of control (control = 1) (Streptococcus sobrinus; 25 μmol/ml): 0.9644; prebiotic effect (extent of growth) ([2]; 10 μmol/ml): exhibited prebiotic effects; prebiotic effect (extent of growth) ([2]; 20 μmol/ml): exhibited prebiotic effects |
| O=C(O)CCC(=O)O [Succinic acid, succinic acid] | exhibited prebiotic effects | 1.1624 | 1.1922 | 1.4603 | 1.3566 | 0.7980 | 0.6726 | 0.2724 | 0.2132 | 0.8643 | 0.8599 | 0.8734 | 0.8448 | 0.9040 | 0.7937 | 0.7975 | 0.8103 | 0.9913 | 1.0196 | 0.2006 | extent of growth, maximal OD630 over 48 hr divided by maximal OD of control (control = 1) (Fusobacterium nucleatum; 25 μmol/ml): 0.1511; extent of growth, maximal OD630 over 48 hr divided by maximal OD of control (control = 1) (Streptococcus salivarius; 5 μmol/ml): 1.0823; extent of growth, maximal OD630 over 48 hr divided by maximal OD of control (control = 1) (Streptococcus salivarius; 10 μmol/ml): 0.8904; extent of growth, maximal OD630 over 48 hr divided by maximal OD of control (control = 1) (Streptococcus salivarius; 20 μmol/ml): 0.2795; extent of growth, maximal OD630 over 48 hr divided by maximal OD of control (control = 1) (Streptococcus salivarius; 25 μmol/ml): 0.2197; extent of growth, maximal OD630 over 48 hr divided by maximal OD of control (control = 1) (Actinomyces viscosus; 5 μmol/ml): 0.5671; extent of growth, maximal OD630 over 48 hr divided by maximal OD of control (control = 1) (Actinomyces viscosus; 10 μmol/ml): 0.3693; extent of growth, maximal OD630 over 48 hr divided by maximal OD of control (control = 1) (Actinomyces viscosus; 20 μmol/ml): 0.1827; extent of growth, maximal OD630 over 48 hr divided by maximal OD of control (control = 1) (Actinomyces viscosus; 25 μmol/ml): 0.1586; extent of growth, maximal OD630 over 48 hr divided by maximal OD of control (control = 1) (Streptococcus sobrinus; 5 μmol/ml): 0.9460; extent of growth, maximal OD630 over 48 hr divided by maximal OD of control (control = 1) (Streptococcus sobrinus; 10 μmol/ml): 0.8269; extent of growth, maximal OD630 over 48 hr divided by maximal OD of control (control = 1) (Streptococcus sobrinus; 20 μmol/ml): 0.4744; extent of growth, maximal OD630 over 48 hr divided by maximal OD of control (control = 1) (Streptococcus sobrinus; 25 μmol/ml): 0.2284; prebiotic effect (extent of growth) ([2]; 20 μmol/ml): exhibited prebiotic effects; prebiotic effect (extent of growth) ([2]; 25 μmol/ml): exhibited prebiotic effects |
